Test results from ChEMBL document CHEMBL1132382 (J Med Chem, 1999).
≈ marks a conversion by molar mass, not a printed value.

How the values were obtained:
Carbonic anhydrase 4 = target: T1, Carbonic anhydrase 4 (Bos taurus, UniProt Q95323)
T1 sequence (Q95323 whole entry): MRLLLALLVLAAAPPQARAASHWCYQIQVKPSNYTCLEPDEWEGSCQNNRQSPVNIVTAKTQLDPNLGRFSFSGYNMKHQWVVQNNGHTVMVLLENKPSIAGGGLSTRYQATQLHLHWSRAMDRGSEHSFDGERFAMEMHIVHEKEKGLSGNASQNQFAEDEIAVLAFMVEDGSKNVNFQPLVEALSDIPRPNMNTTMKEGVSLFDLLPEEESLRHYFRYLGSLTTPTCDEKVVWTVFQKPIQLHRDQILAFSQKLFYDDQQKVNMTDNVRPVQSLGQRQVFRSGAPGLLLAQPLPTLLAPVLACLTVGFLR
Description: Inhibitory activity against bovine carbonic anhydrase IV (CA4), isolated from bovine lung microsomes

Oryctolagus cuniculus [1] = organism: Oryctolagus cuniculus; test: The compound was evaluated for fall in intraocular pressure (IOP) of Normotensive rabbits after treatment with one drop (50 microL) of a 2% solution at 0 min (pH 7.5); assay type: functional, Eye
Oryctolagus cuniculus [2] = organism: Oryctolagus cuniculus; test: The compound was evaluated for fall in intraocular pressure (IOP) of glaucomatous rabbits after treatment with one drop (50 microL) of a 2% solution at 60 min (pH 7.5); assay type: functional, Eye
Oryctolagus cuniculus [3] = organism: Oryctolagus cuniculus; test: The compound was evaluated for fall in intraocular pressure (IOP) of glaucomatous rabbits after treatment with one drop (50 microL) of a 2% solution at 90 min (pH 7.5); assay type: functional, Eye
Oryctolagus cuniculus [4] = organism: Oryctolagus cuniculus; test: The compound was evaluated for fall in intraocular pressure (IOP) of glaucomatous rabbits after treatment with one drop (50 microL) of a 2% solution at 30 min (pH 7.5); assay type: functional, Eye
Oryctolagus cuniculus [5] = organism: Oryctolagus cuniculus; test: The compound was evaluated for fall in intraocular pressure (IOP) of Normotensive rabbits after treatment with one drop (50 microL) of a 2% solution at 30 min (pH 7.5); assay type: functional, Eye
Oryctolagus cuniculus [6] = organism: Oryctolagus cuniculus; test: The compound was evaluated for fall in intraocular pressure (IOP) of Normotensive rabbits after treatment with one drop (50 microL) of a 2% solution at 60 min (pH 7.5); assay type: functional, Eye
Carbonic anhydrase 1 = Carbonic anhydrase 1 (Homo sapiens, UniProt P00915)
Description: Inhibitory activity against human recombinant carbonic anhydrase I (CA1)

[7] = not given; remark: listed apart in the source
[8] = octanol/water
Description: Partition coefficient (logD) (chloroform/buffer)

physchem = details: buffer, pH 7.4
Oryctolagus cuniculus [9] = organism: Oryctolagus cuniculus; test: The compound was evaluated for fall in intraocular pressure (IOP) of Normotensive rabbits after treatment with one drop (50 microL) of a 2% solution at 30 min (pH 5.5); assay type: functional, Eye
Oryctolagus cuniculus [10] = organism: Oryctolagus cuniculus; test: The compound was evaluated for fall in intraocular pressure (IOP) of Normotensive rabbits after treatment with one drop (50 microL) of a 2% solution at 0 min (pH 5.5); assay type: functional, Eye
Oryctolagus cuniculus [11] = organism: Oryctolagus cuniculus; test: The compound was evaluated for fall in intraocular pressure (IOP) of Glaucomatous rabbits after treatment with one drop (50 microL) of a 2% solution at 30 min (pH 6.0); assay type: functional, Eye
Oryctolagus cuniculus [12] = organism: Oryctolagus cuniculus; test: The compound was evaluated for fall in intraocular pressure (IOP) of Glaucomatous rabbits after treatment with one drop (50 microL) of a 2% solution at 60 min (pH 6.0); assay type: functional, Eye
Oryctolagus cuniculus [13] = organism: Oryctolagus cuniculus; test: The compound was evaluated for fall in intraocular pressure (IOP) of Glaucomatous rabbits after treatment with one drop (50 microL) of a 2% solution at 90 min (pH 6.0); assay type: functional, Eye
Oryctolagus cuniculus [14] = organism: Oryctolagus cuniculus; test: The compound was evaluated for fall in intraocular pressure (IOP) of Normotensive rabbits after treatment with one drop (50 microL) of a 2% solution at 60 min (pH 5.5); assay type: functional, Eye
Oryctolagus cuniculus [15] = organism: Oryctolagus cuniculus; test: The compound was evaluated for fall in intraocular pressure (IOP) of Normotensive rabbits after treatment with one drop (50 microL) of a 2% solution at 90 min (pH 5.5); assay type: functional, Eye
Oryctolagus cuniculus [16] = organism: Oryctolagus cuniculus; test: The compound was evaluated for fall in intraocular pressure (IOP) of Glaucomatous rabbits after treatment with one drop (50 microL) of a 2% solution at 0 min (pH 6.0); assay type: functional, Eye
Oryctolagus cuniculus [17] = organism: Oryctolagus cuniculus; test: The compound was evaluated for fall in intraocular pressure (IOP) of Glaucomatous rabbits after treatment with one drop (50 microL) of a 2% solution at 30 min (pH 7.5); assay type: functional, Eye
Oryctolagus cuniculus [18] = organism: Oryctolagus cuniculus; test: The compound was evaluated for fall in intraocular pressure (IOP) of Glaucomatous rabbits after treatment with one drop (50 microL) of a 2% solution at 60 min (pH 7.5); assay type: functional, Eye
Oryctolagus cuniculus [19] = organism: Oryctolagus cuniculus; test: The compound was evaluated for fall in intraocular pressure (IOP) of Glaucomatous rabbits after treatment with one drop (50 microL) of a 2% solution at 90 min (pH 7.5); assay type: functional, Eye
Oryctolagus cuniculus [20] = organism: Oryctolagus cuniculus; test: The compound was evaluated for fall in intraocular pressure (IOP) of Normotensive rabbits after treatment with one drop (50 microL) of a 2% solution at 90 min (pH 7.5); assay type: functional, Eye
Oryctolagus cuniculus [21] = organism: Oryctolagus cuniculus; test: The compound was evaluated for fall in intraocular pressure (IOP) of Glaucomatous rabbits after treatment with one drop (50 microL) of a 2% solution at 0 min (pH 7.5); assay type: functional, Eye

Carbonic anhydrase 1, sequence (P00915 whole entry): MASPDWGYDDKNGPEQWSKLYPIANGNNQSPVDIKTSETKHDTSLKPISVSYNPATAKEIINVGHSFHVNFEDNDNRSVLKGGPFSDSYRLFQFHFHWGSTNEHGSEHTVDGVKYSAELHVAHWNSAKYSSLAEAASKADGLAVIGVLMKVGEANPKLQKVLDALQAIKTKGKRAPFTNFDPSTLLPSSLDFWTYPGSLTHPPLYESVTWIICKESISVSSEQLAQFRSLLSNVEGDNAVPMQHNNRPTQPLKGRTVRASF

Row | Compound | Ki (Carbonic anhydrase 4) [µM] | Change in IOP (Oryctolagus cuniculus [1]) [mmHg] | Change in IOP (Oryctolagus cuniculus [5]) [mmHg] | Change in IOP (Oryctolagus cuniculus [6]) [mmHg] | Ki (Carbonic anhydrase 1) [µM] | kin [h⁻¹] | kin [7] [h⁻¹] | logD [8] | solubility (physchem) [mM] | other results
1 | CN(CC(=O)NCCC(=O)Nc1nnc(S(N)(=O)=O)s1)C(=N)N | 0.008 | 6.6 | 10.7 | 9.8 | 0.021 | 4.7 | 8.5 | 1.944 | 75 (≈ 27.3 mg/mL) | Change in IOP (Oryctolagus cuniculus [2]): 14.2 mmHg; Change in IOP (Oryctolagus cuniculus [3]): 14.3 mmHg; Change in IOP (Oryctolagus cuniculus [4]): 8.6 mmHg
2 | NCC(=O)Nc1ccc(S(=O)(=O)Nc2nnc(S(N)(=O)=O)s2)cc1 | 0.009 | – | – | – | 0.014 | 3.1 | 5.4 | 0.043 | 65 (≈ 25.5 mg/mL) | Change in IOP (Oryctolagus cuniculus [9]): 5.9 mmHg; Change in IOP (Oryctolagus cuniculus [10]): 0 mmHg; Change in IOP (Oryctolagus cuniculus [11]): 7.9 mmHg; Change in IOP (Oryctolagus cuniculus [12]): 12.5 mmHg; Change in IOP (Oryctolagus cuniculus [13]): 14 mmHg; Change in IOP (Oryctolagus cuniculus [14]): 9.5 mmHg; Change in IOP (Oryctolagus cuniculus [15]): 9 mmHg; Change in IOP (Oryctolagus cuniculus [16]): 0 mmHg
3 | NCC(=O)NCC(=O)Nc1ccc(S(=O)(=O)Nc2nnc(S(N)(=O)=O)s2)cc1 | 0.006 | 0 | 5.9 | 8.8 | 0.013 | 2 | 5 | 0.754 | 51 (≈ 22.9 mg/mL) | Change in IOP (Oryctolagus cuniculus [17]): 7 mmHg; Change in IOP (Oryctolagus cuniculus [18]): 11.8 mmHg; Change in IOP (Oryctolagus cuniculus [19]): 13.1 mmHg; Change in IOP (Oryctolagus cuniculus [20]): 9.1 mmHg; Change in IOP (Oryctolagus cuniculus [21]): 0 mmHg
